Assay results: ChEMBL document CHEMBL1157360, “Characterization of an integron carrying blaIMP-1 and a new aminoglycoside resistance gene, aac(6')-31, and its dissemination among genetically unrelated clinical isolates in a Brazilian hospital” (2007)
Converted amounts (≈) assume the structure as drawn.

Experiments:
Type in all cases: functional
Pseudomonas putida = test: Antimicrobial activity against Pseudomonas putida 12346 isolate harboring bla IMP-1 carrying integron In86 containing aminoglycoside resistance gene aac(6')-3
Acinetobacter sp. [1] = test: Antimicrobial activity against Acinetobacter sp. 5248 isolate harboring bla IMP-1 carrying integron In86 containing aminoglycoside resistance gene aac(6')-3
Acinetobacter sp. [2] = test: Antimicrobial activity against Acinetobacter sp. 5227 isolate harboring bla IMP-1 carrying integron In86 containing aminoglycoside resistance gene aac(6')-3
Acinetobacter baumannii [3] = test: Antimicrobial activity against Acinetobacter baumannii 501 isolate harboring bla IMP-1 carrying integron In86 containing aminoglycoside resistance gene aac(6')-3
Acinetobacter baumannii [4] = test: Antimicrobial activity against Acinetobacter baumannii 695 isolate harboring bla IMP-1 carrying integron In86 containing aminoglycoside resistance gene aac(6')-3
Acinetobacter baumannii [5] = test: Antimicrobial activity against Acinetobacter baumannii 9043 isolate harboring bla IMP-1 carrying integron In86 containing aminoglycoside resistance gene aac(6')-3
Acinetobacter baumannii [6] = test: Antimicrobial activity against Acinetobacter baumannii 696 isolate harboring bla IMP-1 carrying integron In86 containing aminoglycoside resistance gene aac(6')-3
Acinetobacter baumannii [7] = test: Antimicrobial activity against Acinetobacter baumannii 694 isolate harboring bla IMP-1 carrying integron In86 containing aminoglycoside resistance gene aac(6')-3
Escherichia coli [8] = test: Antimicrobial activity against Escherichia coli DH5alpha harboring recombinant pIMPAR31
Escherichia coli [9] = test: Antimicrobial activity against Escherichia coli DH5alpha

SMILES	MIC (Pseudomonas putida)	MIC (Acinetobacter sp. [1])	MIC (Acinetobacter sp. [2])	MIC (Acinetobacter baumannii [3])	MIC (Acinetobacter baumannii [4])	MIC (Acinetobacter baumannii [5])	MIC (Acinetobacter baumannii [6])	MIC (Acinetobacter baumannii [7])	MIC (Escherichia coli [8])	MIC (Escherichia coli [9])
CO/N=C(\C(=O)N[C@@H]1C(=O)N2C(C(=O)[O-])=C(C[N+]3(C)CCCC3)CS[C@H]12)c1csc(N)n1	> 16 µg/mL	> 16 µg/mL	> 16 µg/mL	> 16 µg/mL	> 16 µg/mL	> 16 µg/mL	> 16 µg/mL	> 16 µg/mL	–	–
NCC[C@H](O)C(=O)N[C@@H]1C[C@H](N)[C@@H](O[C@H]2O[C@H](CN)[C@@H](O)[C@H](O)[C@H]2O)[C@H](O)[C@H]1O[C@H]1O[C@H](CO)[C@@H](O)[C@H](N)[C@H]1O [AMIKACIN]	> 32 µg/mL	32 µg/mL (≈ 54.6 µM)	> 32 µg/mL	32 µg/mL (≈ 54.6 µM)	32 µg/mL (≈ 54.6 µM)	> 32 µg/mL	> 32 µg/mL	> 32 µg/mL	8 µg/mL	0.5 µg/mL (≈ 0.854 µM)
CC1(C)S[C@@H]2[C@H](NC(=O)[C@H](N)c3ccccc3)C(=O)N2[C@H]1C(=O)O [AMPICILLIN]	> 16 µg/mL	> 16 µg/mL	> 16 µg/mL	> 16 µg/mL	> 16 µg/mL	> 16 µg/mL	> 16 µg/mL	> 16 µg/mL	–	–
C[C@H]1[C@H](NC(=O)/C(=N\OC(C)(C)C(=O)O)c2csc(N)n2)C(=O)N1S(=O)(=O)O [AZTREONAM]	> 16 µg/mL	> 16 µg/mL	> 16 µg/mL	> 16 µg/mL	> 16 µg/mL	> 16 µg/mL	> 16 µg/mL	> 16 µg/mL	–	–
CC(C)(O/N=C(\C(=O)N[C@@H]1C(=O)N2C(C(=O)[O-])=C(C[n+]3ccccc3)CS[C@H]12)c1csc(N)n1)C(=O)O [CEFTAZIDIME]	> 16 µg/mL	> 16 µg/mL	> 16 µg/mL	> 16 µg/mL	> 16 µg/mL	> 16 µg/mL	> 16 µg/mL	> 16 µg/mL	–	–
O=C(O)c1cn(C2CC2)c2cc(N3CCNCC3)c(F)cc2c1=O [CIPROFLOXACIN]	> 2 µg/mL	> 4 µg/mL	2 µg/mL (≈ 6.04 µM)	0.12 µg/mL (≈ 0.362 µM)	> 4 µg/mL	> 2 µg/mL	0.5 µg/mL (≈ 1.51 µM)	1 µg/mL (≈ 3.02 µM)	–	–
COc1c(N2CCNC(C)C2)c(F)cc2c(=O)c(C(=O)O)cn(C3CC3)c12 (stereo not drawn) [GATIFLOXACIN]	> 4 µg/mL	4 µg/mL (≈ 10.7 µM)	1 µg/mL (≈ 2.66 µM)	0.12 µg/mL (≈ 0.32 µM)	4 µg/mL (≈ 10.7 µM)	> 4 µg/mL	0.06 µg/mL (≈ 0.16 µM)	0.25 µg/mL (≈ 0.666 µM)	–	–
C[C@@H](O)[C@H]1C(=O)N2C(C(=O)O)=C(SCCNC=N)C[C@H]12 [IMIPENEM ANHYDROUS]	> 8 µg/mL	> 8 µg/mL	> 8 µg/mL	> 8 µg/mL	> 8 µg/mL	> 8 µg/mL	> 8 µg/mL	> 8 µg/mL	–	–
CN[C@@H]1[C@@H](O)[C@@H](O[C@@H]2[C@@H](O)[C@H](O[C@H]3O[C@H](CN)[C@@H](O)[C@H](O)[C@H]3O)[C@@H](N)C[C@H]2NC(=O)[C@@H](O)CN)OC[C@]1(C)O [ISEPAMICIN]	–	–	–	–	–	–	–	–	4 µg/mL	0.12 µg/mL (≈ 0.211 µM)
NC[C@H]1O[C@H](O[C@H]2[C@H](O)[C@@H](O[C@H]3O[C@H](CO)[C@@H](O)[C@H](N)[C@H]3O)[C@H](N)C[C@@H]2N)[C@H](O)[C@@H](O)[C@@H]1O [KANAMYCIN]	–	–	–	–	–	–	–	–	–	0.5 µg/mL (≈ 1.03 µM)
C[C@H]1COc2c(N3CCN(C)CC3)c(F)cc3c(=O)c(C(=O)O)cn1c23.C[C@H]1COc2c(N3CCN(C)CC3)c(F)cc3c(=O)c(C(=O)O)cn1c23.O [LEVOFLOXACIN]	> 4 µg/mL	4 µg/mL	2 µg/mL	0.25 µg/mL	> 4 µg/mL	> 4 µg/mL	0.25 µg/mL	0.25 µg/mL	–	–
C[C@@H](O)[C@H]1C(=O)N2C(C(=O)O)=C(S[C@@H]3CN[C@H](C(=O)N(C)C)C3)[C@H](C)[C@H]12 [MEROPENEM]	> 8 µg/mL	> 8 µg/mL	> 8 µg/mL	> 8 µg/mL	> 8 µg/mL	> 8 µg/mL	> 8 µg/mL	> 8 µg/mL	–	–
CCN[C@@H]1C[C@H](N)[C@@H](O[C@H]2OC(CN)=CC[C@H]2N)[C@H](O)[C@H]1O[C@H]1OC[C@](C)(O)[C@H](NC)[C@H]1O [NETILMICIN]	> 32 µg/mL	16 µg/mL (≈ 33.6 µM)	> 32 µg/mL	> 32 µg/mL	8 µg/mL (≈ 16.8 µM)	> 32 µg/mL	32 µg/mL (≈ 67.3 µM)	32 µg/mL (≈ 67.3 µM)	4 µg/mL	0.5 µg/mL (≈ 1.05 µM)
CCN1CCN(C(=O)N[C@@H](C(=O)N[C@@H]2C(=O)N3[C@@H]2SC(C)(C)[C@@H]3C(=O)O)c2ccccc2)C(=O)C1=O [PIPERACILLIN]	64 µg/mL (≈ 124 µM)	> 128 µg/mL	> 128 µg/mL	32 µg/mL (≈ 61.8 µM)	128 µg/mL (≈ 247 µM)	> 128 µg/mL	> 128 µg/mL	> 128 µg/mL	–	–
CN[C@@H]1[C@@H](O)[C@@H](O[C@@H]2[C@@H](O)[C@H](O[C@H]3OC(CN)=CC[C@H]3N)[C@@H](N)C[C@H]2N)OC[C@]1(C)O [SISOMICIN]	–	–	–	–	–	–	–	–	8 µg/mL	≤ 0.25 µg/mL
CC1(C)S[C@@H]2[C@H](NC(=O)[C@H](C(=O)O)c3ccsc3)C(=O)N2[C@H]1C(=O)O [TICARCILLIN]	> 128 µg/mL	> 128 µg/mL	> 128 µg/mL	> 128 µg/mL	> 128 µg/mL	> 128 µg/mL	> 128 µg/mL	> 128 µg/mL	–	–
NC[C@H]1O[C@H](O[C@H]2[C@H](O)[C@@H](O[C@H]3O[C@H](CO)[C@@H](O)[C@H](N)[C@H]3O)[C@H](N)C[C@@H]2N)[C@H](N)C[C@@H]1O [TOBRAMYCIN]	> 16 µg/mL	8 µg/mL (≈ 17.1 µM)	16 µg/mL (≈ 34.2 µM)	> 16 µg/mL	> 16 µg/mL	16 µg/mL (≈ 34.2 µM)	16 µg/mL (≈ 34.2 µM)	16 µg/mL (≈ 34.2 µM)	4 µg/mL	0.25 µg/mL (≈ 0.535 µM)
